Experimental data: patent publication US8771714B2, “Systems and methods for in vivo measurement of interstitial biological activity, processes and/or compositions” (MUSC Foundation for Research Development, priority 2006, dated 2014)
Where two headings read alike, the source gives them in different places. Blank lines part the entries; values can stand above or below the molecule they belong to. Square brackets hold non-standard residues; d marks the D form. * marks the point of attachment. Dpa = 3-(2,4-dinitrophenyl)-L-2,3-diaminopropionyl; Dnp = O=[N+]([O-])c1ccc(*)c([N+](=O)[O-])c1; Mca = COc1ccc2c(CC(=O)*)cc(=O)oc2c1; Cha = N[C@@H](CC1CCCCC1)C(=O)O; Nva = CCC[C@H](N)C(=O)O; Mob = COc1ccc(C*)cc1

Assays:
MMP-14 = biological target: T1, MMP-14 (Homo sapiens, UniProt P50281); assay: Ex-vivo MMP-14 activity in myocardial extracts; assay type: biochemical; design: dose or concentration left out as unconfirmed; settings: BB94; FIG. 22
T1 construct: from tissue; host or cells: human myocardium, crude homogenate
Protocol: A similar experiment was done utilizing the fluorogenic substrate specific for MT1-MMP (MMP-14). Substrate (MMP-14 Substrate I, Fluorogenic, Calbiochem) was diluted in the same reaction buffer and loaded into the FLUOstar® for automatic injection (10 μM). […] The reaction was allowed to proceed in which 200 recordings (398 minutes) were collected. This reaction using the MMP-14 specific substrate was linear with increasing concentrations of a recombinant MMP-14 catalytic domain ([…], Chemicon) (FIG. 20).

[1] = system: MMP-2/9 recombinant protein; assay: MMP-1, 2, 3, 7, 9 substrate incubated with MMP-2/9 recombinant protein; assay type: biochemical
Protocol: Microdialysis: Microdialysis probes with a molecular weight cutoff of 20 kDa and an outer diameter of 0.5 mm were placed in the LV. The molecular weight cutoff of the microdialysis probe prevented any MMP species from traversing the membrane. A fluorogenic substrate specific for MMP-1, 2, 3, 7, and 9 (Calbiochem, La Jolla, Calif.) at a concentration of 60 ˜mol/L was stored in a 2.5 mL Bee Stinger® Gastight Syringe (Bioanalytical Systems, Inc) and infused at a rate of 5 ˜L/min through the 2 probes by the Baby Bee® Syringe Drive controlled by the MD-1020 Bee Hive Controller (Bioanalytical Systems, Inc). Fluorescence emitted via substrate cleavage deter-mined MMP activity. Substrate was allowed to equilibrate for 20 minutes before the beginning of the protocol. All tubing and syringes were protected from light. The specificity of this substrate was determined and performed as described for these fluorogenic substrates previously. […] With the addition of a broad spectrum MMP inhibitor (BB-94, 10 mmol/L, British Biotech), fluorescence emission was abolished.

MT1-MMP catalytic domain = assay: Validation of LTBP-1 fluorogenic substrate with MT1-MMP catalytic domain; assay type: biochemical; settings: 15 uM LTBP-1 substrate; 0007258 5 pM; BB94 1 uM; AB8102 1 mg/mL
Text: Previous studies have identified mutations within a similar type of domain in fibrillin-1, an LTBP-1 homologue, implicated in Marfan Syndrome (MFS). Furthermore, MFS has been associated with the over-stimulation of TGF-Beta signaling as a result of fibrillin-1 mutation. Using this unique sequence, a fluorogenic peptide was constructed and validated. This peptide sequence was synthesized in a caged fluorogenic construct (AnaSpec Inc, CA; newly assigned peptide name:SCJJ-1) with a certified HPLC purity of >98% FIG. 28. Using the incubation conditions and fluorescent equipment described in the previous section, and a specific excitation/emission wavelength (340/483 nm), 15 uM of LTBP-1 was exposed to increasing concentrations of the MT1-MMP catalytic domain FIG. 28.
Thus, an LTBP-1 peptide sequence constructed and validated that is specifically cleaved by MT1-MMP.

MMP-1, 2, 3, 7, 9 = assay: Ex-vivo MMP-1, 2, 3, 7, 9 activity in myocardial extracts; assay type: biochemical, human; design: dose or concentration left out as unconfirmed; settings: BB94; FIG. 18
Protocol: In addition, these substrates were used to examine MMP activity ex-vivo using myocardial samples from both human and animal specimens. The frozen myocardial tissue was submerged in 2 mL of ice-cold buffer (Cacodylic Acid, NaCl, ZnCl2, CaCl2, NaN3, 0.08% Triton X), homogenized, and spun at 8,000 G for 10 minutes at 4C. The supernatant was then measured, tested for protein concentration, aliquoted, and stored at −70° C. Final protein concentrations were diluted in a reaction buffer containing (0.05% Brij, 50 mM Tris-HCl, 0.2 M NaCl, 10 mM CaCl2, […]) and the samples were loaded onto a 96-well microplate (FluoroNunc® 96-Well Polystyrene Plates) and placed in a 37° C. temperature controlled unit allowing for continuous fluorescence measurements (FLUOstar® Galaxy, BMG Labtechnologies). Substrate (MMP Substrate, Fluorogenic, Calbiochem) was diluted in the same reaction buffer and loaded into the FLUOstar® for automatic injection (12 mM). […] Excitation was set to (280 nm) and emission was set to (360 nm) and readings were taken every 2 minutes following the addition of the substrate. The reaction was allowed to proceed to 200 recordings (398 minutes). This reaction using the MMP-1, 2, 3, 7, 9 specific substrate was linear with increasing concentrations.

[2] = biological target: T2, MT1-MMP (MMP-14) recombinant catalytic domain (Homo sapiens, UniProt P50281); assay: In vitro validation of MT1-MMP fluorogenic substrate with recombinant MT1-MMP catalytic domain; assay type: biochemical
T2 construct: recombinant MT1-MMP catalytic domain (BIOMOL, Plymouth Meeting, Pa.); purchased BIOMOL, Plymouth Meeting, Pa
Protocol: Examples of fluorogenic substrate specificity for MMPs are shown below.
Specifically, MT1-MMP substrate (7.5 mM) was injected into a 96-well polystyrene plate (Nalge Nunc International, Rochester, N.Y.) with a 1.0 ng/mL concentration of recombinant MT1-MMP catalytic domain (BIOMOL, Plymouth Meeting, Pa.) and fluorescence emission was recorded. A rapid rise in activity, as measured by fluorescence emission, plateaued around 90 minutes. […] (FIG. 15, top). In addition, full length MT1-MMP (pretreated with 10 mM p-aminophenylmercuric acetate) was incubated for 1 hour at 37° C. with or without an antibody specific for the catalytic domain of MT1-MMP (1000 ng/mL, Chemicon AB8102). After the incubation period, the MT1-MMP substrate was injected and fluorescence emission recorded.
(§1) In an additional set of experiments (FIG. 16), MT1-MMP catalytic domain (1000 ng/mL, BIOMOL, Plymouth Meeting, Pa.) was injected into a 96-well polystyrene plate (Nalge Nunc International, Rochester, N.Y.) with a 30 mM mixture of MT1-MMP substrate only or MT1-MMP substrate with MMP-2/9 (500 ng/mL, Chemicon; FIG. 16, top), MMP-8 (10 ng/mL, Calbiochem; FIG. 16, middle), or a disintegrin and metalloproteinase (ADAM)-10 and -17 cocktail (200 ng/mL, R&D Systems; FIG. 16, bottom).

angiotensin receptor = angiotensin receptor (Sus scrofa, UniProt P30555); settings: bolus of 1 mg/kg, infusion of 3 ng/kg/h; previously found; cited from earlier work
Sequence of angiotensin receptor (P30555 whole entry, the tested form may be a part): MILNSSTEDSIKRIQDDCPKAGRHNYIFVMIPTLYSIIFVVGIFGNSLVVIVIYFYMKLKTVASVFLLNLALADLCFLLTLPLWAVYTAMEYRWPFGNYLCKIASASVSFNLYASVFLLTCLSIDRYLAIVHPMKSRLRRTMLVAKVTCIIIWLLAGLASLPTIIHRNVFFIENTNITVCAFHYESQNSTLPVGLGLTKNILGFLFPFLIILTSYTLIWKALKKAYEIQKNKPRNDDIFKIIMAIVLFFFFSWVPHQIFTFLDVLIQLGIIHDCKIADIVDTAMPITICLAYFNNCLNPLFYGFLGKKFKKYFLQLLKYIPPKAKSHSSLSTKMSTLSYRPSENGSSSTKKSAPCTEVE

MMP-2 and MMP-9 = system: MMP-2 and MMP-9; design: species or system pigs; settings: pig, in vivo
MMPs = MMPs that cleave the substrate, commercially available substrates, cited from earlier work
purified MMP-2/9 = assay: In vitro microdialysis of MMP substrate in immersion solution with purified MMP-2/9; assay type: biochemical; settings: infused at 2.5 ml/min, purified MMP-2/9, 37° C.
MMP-2/9 = assay: Specificity of MT1-MMP substrate: incubation with MMP-2/9; assay type: biochemical; settings: MMP-2/9 500 ng/mL alone, 30 mM substrate
Protocol: as §1

MMP-8 = biological target: T3, MMP-8 (Homo sapiens, UniProt P22894); assay: Specificity of MT1-MMP substrate: incubation with MMP-8; assay type: biochemical; settings: MMP-8 10 ng/mL alone, 30 mM substrate
T3 construct: purchased Calbiochem
T3 sequence (P22894 101-467, species assumed): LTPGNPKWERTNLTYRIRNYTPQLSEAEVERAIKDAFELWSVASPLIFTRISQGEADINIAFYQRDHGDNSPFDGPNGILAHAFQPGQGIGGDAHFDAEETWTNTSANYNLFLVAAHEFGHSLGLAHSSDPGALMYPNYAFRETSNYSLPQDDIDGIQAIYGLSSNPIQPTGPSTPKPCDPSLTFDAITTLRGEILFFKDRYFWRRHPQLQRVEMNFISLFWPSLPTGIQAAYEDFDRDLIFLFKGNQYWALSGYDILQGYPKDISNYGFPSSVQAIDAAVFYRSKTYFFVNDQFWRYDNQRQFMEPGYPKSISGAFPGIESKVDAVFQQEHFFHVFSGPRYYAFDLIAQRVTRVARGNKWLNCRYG
Protocol: as §1

[3] = system: a disintegrin and metalloproteinase (ADAM)-10 and -17; assay: Specificity of MT1-MMP substrate: incubation with ADAM-10 and -17 cocktail; assay type: biochemical; settings: ADAM-10 and -17 cocktail 200 ng/mL alone, 30 mM substrate
Protocol: as §1

inhibition of MMP-14 substrate reaction (MMP-14): significantly inhibited
fluorescence emission with addition of BB94 ([2]; MT1-MMP recombinant catalytic domain, FIG. 13): abolishment of fluorescence emission
Molecule: CNC(=O)[C@H](Cc1ccccc1)NC(=O)[C@H](CC(C)C)[C@H](CSc1cccs1)C(=O)NO [BB94]
fluorescence emission with addition of inhibitor ([1]; BB-94, MMP-2/9 500 ng/mL): abolished
fluorescent activity on co-incubation (MT1-MMP catalytic domain): extinguished all fluorescent activity
inhibition of MMP-1, 2, 3, 7, 9 substrate reaction (MMP-1, 2, 3, 7, 9): significantly inhibited

Molecule: CCCCC(=O)N(Cc1ccc(-c2ccccc2-c2nnn[nH]2)cc1)[C@H](C(=O)O)C(C)C [Valsartan]
effect on angiotensin pressor response (angiotensin receptor): inhibited the angiotensin pressor response

Molecule: CNC(=O)[C@H](Cc1c[nH]c2ccccc12)NC(=O)[C@@H](CC(=O)NO)CC(C)C [galardin]
fluorescent activity in interstitial microdialysate samples on coinfusion with MMP substrate (MMP-2 and MMP-9): abolished all fluorescent activity

Molecule: DABCYL-GABA-Arg-Pro-Lys-Pro-Val-Glu-Nva-Trp-Arg-Glu(EDANS)-Ala-Lys-NH2 [SEQ ID NO: 2]
Specificity (MMPs): MMP-3,5,9,13

Molecule: DNP-Arg-Pro-Leu-Ala-Leu-Trp-Arg-Ser-OH (Dnp-RPLALWRS-OH; SMILES CC(C)C[C@H](NC(=O)[C@H](C)NC(=O)[C@H](CC(C)C)NC(=O)[C@@H]1CCCN1C(=O)[C@H](CCCNC(=N)N)Nc1ccc([N+](=O)[O-])cc1[N+](=O)[O-])C(=O)N[C@@H](Cc1c[nH]c2ccccc12)C(=O)N[C@@H](CCCNC(=N)N)C(=O)N[C@@H](CO)C(=O)O) [SEQ ID NO: 5]
Specificity (MMPs): MMP-7

Molecule: DNP-Pro-Leu-Ala-Leu-Trp-Arg-OH (Dnp-PLALWR-OH; SMILES CC(C)C[C@H](NC(=O)[C@H](C)NC(=O)[C@H](CC(C)C)NC(=O)[C@@H]1CCCN1c1ccc([N+](=O)[O-])cc1[N+](=O)[O-])C(=O)N[C@@H](Cc1c[nH]c2ccccc12)C(=O)N[C@@H](CCCNC(=N)N)C(=O)O) [SEQ ID NO: 3]
Specificity (MMPs): MMP-1

Molecule: DNP-Pro-Leu-Ala-Tyr-Trp-Ala-Arg-OH (Dnp-PLAYWAR-OH; SMILES CC(C)C[C@H](NC(=O)[C@@H]1CCCN1c1ccc([N+](=O)[O-])cc1[N+](=O)[O-])C(=O)N[C@@H](C)C(=O)N[C@@H](Cc1ccc(O)cc1)C(=O)N[C@@H](Cc1c[nH]c2ccccc12)C(=O)N[C@@H](C)C(=O)N[C@@H](CCCNC(=N)N)C(=O)O) [SEQ ID NO: 6]
Specificity (MMPs): MMP-8

Molecule: DNP-Pro-Leu-Gly-Leu-Trp-Ala-D-Arg-NH2 (Dnp-PLGLWA[dR]-NH2; SMILES CC(C)C[C@H](NC(=O)CNC(=O)[C@H](CC(C)C)NC(=O)[C@@H]1CCCN1c1ccc([N+](=O)[O-])cc1[N+](=O)[O-])C(=O)N[C@@H](Cc1c[nH]c2ccccc12)C(=O)N[C@@H](C)C(=O)N[C@H](CCCNC(=N)N)C(N)=O) [SEQ ID NO: 1]
Specificity (MMPs): MMP-1,2,3,7,9
Specificity (MMPs; listed as SEQ ID NO:1): cleaved selectively by MMPs 1, 2, 3, 7, 9
time to steady-state fluorescence emission ([1]; MMP-2/9 recombinant protein 500 ng/mL): ≤ 60 min

Molecule: DNP-Pro-Leu-Gly-Met-Trp-Ser-Arg-OH (Dnp-PLGMWSR-OH; SMILES CSCC[C@H](NC(=O)CNC(=O)[C@H](CC(C)C)NC(=O)[C@@H]1CCCN1c1ccc([N+](=O)[O-])cc1[N+](=O)[O-])C(=O)N[C@@H](Cc1c[nH]c2ccccc12)C(=O)N[C@@H](CO)C(=O)N[C@@H](CCCNC(=N)N)C(=O)O) [SEQ ID NO: 9]
Specificity (MMPs): MMP-2,9

Molecule: DNP-Pro-Tyr-Ala-Tyr-Trp-Met-Arg-OH (Dnp-PYAYWMR-OH; SMILES CSCC[C@H](NC(=O)[C@H](Cc1c[nH]c2ccccc12)NC(=O)[C@H](Cc1ccc(O)cc1)NC(=O)[C@H](C)NC(=O)[C@H](Cc1ccc(O)cc1)NC(=O)[C@@H]1CCCN1c1ccc([N+](=O)[O-])cc1[N+](=O)[O-])C(=O)N[C@@H](CCCNC(=N)N)C(=O)O) [SEQ ID NO: 4]
Specificity (MMPs): MMP-3

Molecule: Dnp-PLGLGMWSR-OH
time at which relative fluorescence plateaued (purified MMP-2/9): ≤ 60 min

Molecule: MCA-Pro-Cha-Gly-Nva-His-Ala-Dpa-NH2 (Mca-P[Cha]G[Nva]HA-{Dpa-NH2}) [SEQ ID NO: 7]
Specificity (MMPs): MMP-13

fluorescence emission from the substrate (MMP-8): failed to cause fluorescence emission
fluorescence emission from the substrate [3]: failed to cause fluorescence emission
fluorescence emission from the substrate ([2]; injection of MT1-MMP catalytic domain 1000 ng/mL, in all protease cocktails): rapid rise in fluorescence emission
time at which fluorescence emission plateaued ([2]; substrate 7.5 mM, 1.0 ng/mL recombinant MT1-MMP catalytic domain): around 90 minutes
Molecule: MCA-Pro-Leu-Ala-Cys(p-OMeBz)-Trp-Ala-Arg(Dpa)-NH2 (Mca-PLAC(Mob)WAR(Dpa)-NH2) [SEQ ID NO: 8]
fluorescence emission from the substrate (MMP-2/9): failed to cause fluorescence emission
Specificity (MMPs): MMP-14
Specificity (MMPs; listed as SEQ ID NO:8): cleaved selectively by MMP-14
